Data on 7 compounds can be found in ChEMBL document CHEMBL1128643, “Impact of polyamine analogues on the NMDA receptor” (1995).

Assay [1] is filed under the species Rattus norvegicus. In words: Compound was evaluated for agonist activity at 10 uM exhibiting moderate antagonism of [3H]MK-801 binding relative to 100% control. In kind it is functional. The arrangement: unit: % of control.
Assay [2] is filed under the species Rattus norvegicus. Description: Compound was evaluated for agonist activity at 1 uM exhibiting moderate antagonism of [3H]MK-801 binding relative to 100% control. Type of assay: functional. The arrangement: unit: % of control.

Regarding `CCNCCCNCCCCNCCCNCC` [BIS(ETHYL)SPERMINE], the Activity is listed as 63.7 in assay [1] and 113.7 in assay [2].

Consider `C(CCNCCCCN[C@]12C[C@H]3C[C@H](C[C@H](C3)C1)C2)CNCCCCNC12C[C@H]3C[C@@H](C1)C[C@@H](C2)C3.Cl`, for which the Activity in assay [1] came to 15; in assay [2], 101.9.

In assay [2], `NCCCNCCCCNCCCN` [SPERMINE] registered an Activity of 123.2.

`CNCCCNCCCNCCCNC`: the Activity is on record as 87.9 in assay [1] and 120.6 in assay [2].

As to `CNCCCCNCCCCNCCCCNC`, the results for the Activity in assay [1] and in assay [2] were 76.3 and 117.8, respectively.

Take `CCNCCCCNCCCCNCCCCNCC` [DIETHYLHOMOSPERMINE]: the Activity in assay [1] was 53.9; in assay [2], 114.3.

Take `CC(C)(C)NCCCCNCCCCNCCCCNC(C)(C)C`: the Activity in assay [1] was 33; in assay [2], 106.5.
